Assay results published in US4269831A, “Topical dermatological method of use of an androstenopyrazole” (priority 1979, dated 1981).

Experiments:
[1] = test system: flank organ of mature male Syrian golden hamsters; assay: Topical comparison in mature male hamsters, right flank organ treated, left flank organ vehicle (Tables II, III); format: in vivo; settings: n=7; for Flank organ Diameter, RFO / Flank organ Weight, RFO / Flank organ Development, RFO (median score): treated right flank organ; for Flank organ Diameter, RFO / Flank organ Weight, RFO: mean; for Flank organ Development, RFO (median score): scale 0 to 4 (0 barely visible, 4 as in mature male); for Flank Organ (Mean Score) Area / Flank Organ (Mean Score) Elevation / Flank Organ (Mean Score) Hair Growth / Flank Organ (Mean Score) Hair Pigmentation / Flank Organ (Mean Score) Skin Pigmentation: RFO, scale 0 to 4
Text: Each flank organ of mature male Syrian golden hamsters having a mean initial body weight of 105 g. was medicated topically with the compound of Formula I dissolved in ethanol (5 microliters) for twenty-one days. Flank organ hair was clipped three times per week to facilitate application. On the day following the last medication the hamsters were killed with an overdose of sodium pentobarbital. The flank organ parameters and the weights of seminal vesicles, adrenals and thymus glands were determined. Flank organ diameter was measured parallel to the breadth of the hamster with vernier calipers. Wet weights were obtained on flank organs excised around the periphery of the pigmented area. The topical activity of the compound of Formula I was also compared with that of 17β-hydroxy-17α-propylandrost-4-en-3-one, an antiandrogen, and hydrocortisone. In this experiment the right flank organ was treated with the test compound while vehicle-treated left flank organ served as control. […] In addition, the individual characteristics of the flank organ, elevation (thickness relative to adjacent skin), area, hair pigment, skin pigment and hair growth were all scored separately on a scale of 0 to 4.

[2] = target: T1, hamster flank organ cytosol receptor (Mesocricetus auratus, UniProt A0A1U7QL32); assay: Binding competition with 3H-dihydrotestosterone in hamster flank organ cytosol in vitro (Table VI); set-up: species or system Syrian golden hamsters; settings: 3H-DHT 2 nM, two hours, no antagonist 13.96
T1 construct: The homogenate was centrifuged (120,000×g for 45 min.) and the cytosol was frozen and stored at -70° C; from tissue; host or cells: flank organ cytosol of castrated male Syrian golden hamsters
T1 sequence (A0A1U7QL32 1-900): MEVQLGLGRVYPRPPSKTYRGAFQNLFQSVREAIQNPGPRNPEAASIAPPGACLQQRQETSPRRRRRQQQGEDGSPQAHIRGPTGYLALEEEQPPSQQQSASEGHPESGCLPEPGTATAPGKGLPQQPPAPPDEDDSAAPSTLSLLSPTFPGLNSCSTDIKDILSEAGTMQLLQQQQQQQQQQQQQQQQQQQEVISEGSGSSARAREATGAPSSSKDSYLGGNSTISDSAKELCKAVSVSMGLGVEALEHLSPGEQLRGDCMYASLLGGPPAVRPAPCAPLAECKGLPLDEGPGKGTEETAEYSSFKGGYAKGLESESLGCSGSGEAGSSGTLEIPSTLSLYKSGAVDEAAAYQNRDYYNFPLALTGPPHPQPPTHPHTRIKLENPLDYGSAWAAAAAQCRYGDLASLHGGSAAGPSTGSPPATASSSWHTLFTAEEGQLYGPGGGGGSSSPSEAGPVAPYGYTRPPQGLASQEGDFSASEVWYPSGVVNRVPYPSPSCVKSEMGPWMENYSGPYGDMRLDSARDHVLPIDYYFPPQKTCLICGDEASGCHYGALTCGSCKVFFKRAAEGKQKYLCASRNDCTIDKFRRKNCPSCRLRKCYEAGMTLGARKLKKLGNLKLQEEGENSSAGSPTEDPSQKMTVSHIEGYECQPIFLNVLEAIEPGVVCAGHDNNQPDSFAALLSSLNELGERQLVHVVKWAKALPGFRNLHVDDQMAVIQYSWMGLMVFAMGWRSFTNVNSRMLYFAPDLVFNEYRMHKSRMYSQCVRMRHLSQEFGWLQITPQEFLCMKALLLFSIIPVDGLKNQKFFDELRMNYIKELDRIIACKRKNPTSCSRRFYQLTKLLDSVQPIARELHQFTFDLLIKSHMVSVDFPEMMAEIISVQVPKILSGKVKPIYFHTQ
Method: The flank organs of twelve mature male Syrian golden hamsters each weighing from 120 to 140 g. and having been castrated 16-18 hours earlier were excised, dissected under the microscope to remove the dermis and the muscle layers and homogenized in buffer (1.5 volumes of 50 mM Tris, 0.5 mM mercaptoethanol and 0.1 mM ethylenediamine tetracetate, pH 7.4). The homogenate was centrifuged (120,000×g for 45 min.) and the cytosol was frozen and stored at -70° C. Six of the cytosol samples were thawed at room temperature, pooled and used for evaluation of in vitro binding.

[3] = test system: hair growth on backs of male adrenalectomized Sprague-Dawley rats; assay: Reduction in hair growth in male adrenalectomized rats, topical (Table VII); format: in vivo; settings: 0.1% solution topical, n=12
Text: Hair was clipped from the backs of male Sprague-Dawley rats, having a mean body weight of 300 g., three weeks after adrenalectomy. The clipped area (4 cm.×4 cm.) was medicated with approximately 500 microliters of 0.1% solution of the compound of Formula I, or hydrocortisone or 500 microliters of ethanol alone for a two-week pretreatment period. The clipped area was then depilated and the medication with either solution or ethanol alone was continued for 4 weeks. The density of hair growth was scored visually at weekly intervals and at termination of the experiment on a scale of 0 to 4 (0, no hair growth; 4, complete hair regrowth). Skinfold thickness was also measured using a micrometer at the end of the experiment, which was conducted blind.

[4] = test system: castrated immature male Syrian golden hamsters; assay: Systemic antiandrogenic and glucocorticoid activity, subcutaneous, with testosterone propionate (Table IV); format: in vivo; settings: testosterone propionate 0.4 mg/kg/day alone for 14 days (androgen-treated control); mean, n=8
Method: A solution of the compound of Formula I in cottonseed oil was administered subcutaneously at 1 ml./kg. to castrated immature male Syrian golden hamsters having a mean initial body weight of 79 g. for 14 consecutive days concurrently with testosterone propionate. On the day following the last medication the hamsters were killed, the flank organ parameters were determined and the weights of seminal vesicles, adrenals and thymus glands were obtained.

[5] = after depilation, median score, scale 0 to 4

CCC[C@]1(O)CC[C@H]2[C@@H]3CCC4=CC(=O)CC[C@]4(C)[C@H]3CC[C@@]21C [17β-Hydroxy-17α-propylandrost-4-en-3-one, 17β-hydroxy-17α-propylandrost-4-en-3-one]
Flank organ Diameter, RFO ([1]; 5 μg/RFO for 21 days): 4.9 mm
Flank organ Weight, RFO ([1]; 5 μg/RFO for 21 days): 33.8 mg
Flank organ Development, RFO (median score) ([1]; 5 μg/RFO for 21 days): 3
Flank organ Diameter, RFO ([1]; 50 μg/RFO for 21 days): 3.9 mm
Flank organ Weight, RFO ([1]; 50 μg/RFO for 21 days): 21.4 mg
Flank organ Development, RFO (median score) ([1]; 50 μg/RFO for 21 days): 2
Flank Organ (Mean Score) Area ([1]; 5 μg/flank organ for 21 days): 3.1
Flank Organ (Mean Score) Elevation ([1]; 5 μg/flank organ for 21 days): 2.6
Flank Organ (Mean Score) Hair Growth ([1]; 5 μg/flank organ for 21 days): 3.1
Flank Organ (Mean Score) Hair Pigmentation ([1]; 5 μg/flank organ for 21 days): 3.3
Flank Organ (Mean Score) Skin Pigmentation ([1]; 5 μg/flank organ for 21 days): 4.0
Flank Organ (Mean Score) Area ([1]; 50 μg/flank organ for 21 days): 1.6
Flank Organ (Mean Score) Elevation ([1]; 50 μg/flank organ for 21 days): 1.4
Flank Organ (Mean Score) Hair Growth ([1]; 50 μg/flank organ for 21 days): 2.3
Flank Organ (Mean Score) Hair Pigmentation ([1]; 50 μg/flank organ for 21 days): 2.6
Flank Organ (Mean Score) Skin Pigmentation ([1]; 50 μg/flank organ for 21 days): 2.7

C[C@]12CCC(=O)C[C@@H]1CC[C@@H]1[C@@H]2CC[C@]2(C)[C@@H](O)CC[C@@H]12 [DHT, Dihydrotestosterone, reference compound]
% Bound (Mean ± SE) of 3H-dihydrotestosterone ([2]; unlabelled antagonist 20 nM, molar ratio 10): 7.95 ± .41%
% Bound (Mean ± SE) of 3H-dihydrotestosterone ([2]; unlabelled antagonist 200 nM, molar ratio 100): 4.22 ± .001%
% Bound (Mean ± SE) of 3H-dihydrotestosterone ([2]; unlabelled antagonist 2000 nM, molar ratio 1000): 4.00 ± .22%

C[C@]12CCC(=O)C=C1CC[C@@H]1[C@@H]2[C@@H](O)C[C@@]2(C)[C@H]1CC[C@]2(O)C(=O)CO [Hydrocortisone, hydrocortisone]
Hair Growth Score, Treatment week 1 [3, 5]: 0
Hair Growth Score, Treatment week 2 [3, 5]: 0
Hair Growth Score, Treatment week 3 [3, 5]: 1
Hair Growth Score, Treatment week 4 [3, 5]: 2
Skinfold Thickness, Treatment week 4 ([3]; mean, vehicle 2.51): 2.11 mm
Hair Growth Score, Pretreatment week 1 ([3]; median score, scale 0 to 4 (0 no hair growth, 4 complete regrowth)): 2
Hair Growth Score, Pretreatment week 2 ([3]; median score, scale 0 to 4): 3
Flank organ Diameter, RFO ([1]; 5 μg/RFO for 21 days): 5.7 mm
Flank organ Weight, RFO ([1]; 5 μg/RFO for 21 days): 38.5 mg
Flank organ Development, RFO (median score) ([1]; 5 μg/RFO for 21 days): 4
Flank organ Diameter, RFO ([1]; 50 μg/RFO for 21 days): 5.7 mm
Flank organ Weight, RFO ([1]; 50 μg/RFO for 21 days): 39.1 mg
Flank organ Development, RFO (median score) ([1]; 50 μg/RFO for 21 days): 4
Flank Organ (Mean Score) Area ([1]; 5 μg/flank organ for 21 days): 3.7
Flank Organ (Mean Score) Elevation ([1]; 5 μg/flank organ for 21 days): 3.7
Flank Organ (Mean Score) Hair Growth ([1]; 5 μg/flank organ for 21 days): 1.9
Flank Organ (Mean Score) Hair Pigmentation ([1]; 5 μg/flank organ for 21 days): 3.7
Flank Organ (Mean Score) Skin Pigmentation ([1]; 5 μg/flank organ for 21 days): 3.9
Flank Organ (Mean Score) Area ([1]; 50 μg/flank organ for 21 days): 4.0
Flank Organ (Mean Score) Elevation ([1]; 50 μg/flank organ for 21 days): 3.5
Flank Organ (Mean Score) Hair Growth ([1]; 50 μg/flank organ for 21 days): 1.3
Flank Organ (Mean Score) Hair Pigmentation ([1]; 50 μg/flank organ for 21 days): 3.0
Flank Organ (Mean Score) Skin Pigmentation ([1]; 50 μg/flank organ for 21 days): 3.4

CCC(=O)O[C@H]1CC[C@H]2[C@@H]3CCC4=CC(=O)CC[C@]4(C)[C@H]3CC[C@]12C [Testosterone Propionate, testosterone propionate, reference compound]
Final Body Weight [4]: 106
Flank Organ Diameter [4]: 4.3 mm
Flank Organ Wet Weight [4]: 22.8 mg
Organ Weights: Adrenals [4]: 18.2 mg
Organ Weights: Seminal Vesicles [4]: 157 mg
Organ Weights: Thymus [4]: 58 mg
